{"source": "patent US11098044B2", "about": "“Imidazopyridinyl compounds and use thereof for treatment of neurodegenerative disorders” (1ST Biotherapeutics, Inc., priority 2019, dated 2021)", "format_in_all_cases": "biochemical", "key": {"[1]": {"target": "c-Abl (His-tagged recombinant human ABL1) (Homo sapiens (Human), UniProt P00519)", "sequence (P00519 whole entry)": "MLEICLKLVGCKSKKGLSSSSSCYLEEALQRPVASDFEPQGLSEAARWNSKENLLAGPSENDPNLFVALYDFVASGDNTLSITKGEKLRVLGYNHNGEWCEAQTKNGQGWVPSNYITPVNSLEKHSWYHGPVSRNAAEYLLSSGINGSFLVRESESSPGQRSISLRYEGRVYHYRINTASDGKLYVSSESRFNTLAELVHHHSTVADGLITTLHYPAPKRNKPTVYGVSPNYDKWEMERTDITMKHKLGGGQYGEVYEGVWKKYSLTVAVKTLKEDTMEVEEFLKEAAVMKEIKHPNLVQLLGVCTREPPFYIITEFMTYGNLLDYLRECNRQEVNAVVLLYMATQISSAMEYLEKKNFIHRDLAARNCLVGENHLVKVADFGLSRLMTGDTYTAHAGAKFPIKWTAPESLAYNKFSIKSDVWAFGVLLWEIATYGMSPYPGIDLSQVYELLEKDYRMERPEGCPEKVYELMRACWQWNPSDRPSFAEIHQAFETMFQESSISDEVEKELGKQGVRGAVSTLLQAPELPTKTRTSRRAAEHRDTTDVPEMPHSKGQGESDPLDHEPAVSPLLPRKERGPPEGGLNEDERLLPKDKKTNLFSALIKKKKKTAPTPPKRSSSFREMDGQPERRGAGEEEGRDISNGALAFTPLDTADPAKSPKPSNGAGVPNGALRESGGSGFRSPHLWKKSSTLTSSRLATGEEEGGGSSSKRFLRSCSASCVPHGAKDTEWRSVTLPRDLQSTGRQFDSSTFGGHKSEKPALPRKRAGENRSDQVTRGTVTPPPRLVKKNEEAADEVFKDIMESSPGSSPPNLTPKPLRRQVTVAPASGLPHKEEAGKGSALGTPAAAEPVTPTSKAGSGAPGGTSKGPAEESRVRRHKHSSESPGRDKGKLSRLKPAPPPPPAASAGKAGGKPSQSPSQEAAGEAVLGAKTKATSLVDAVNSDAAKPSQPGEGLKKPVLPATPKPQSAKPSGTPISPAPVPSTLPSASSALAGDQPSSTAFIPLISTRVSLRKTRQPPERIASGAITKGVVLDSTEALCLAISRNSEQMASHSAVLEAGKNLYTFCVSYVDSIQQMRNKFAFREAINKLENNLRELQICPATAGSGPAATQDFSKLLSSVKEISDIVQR", "experiment": "c-abl Kinase Assay (ADP-Glo)", "settings": "ATP (25 μM), Abltide substrate", "outline": "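His-tagged human ABL1 (0.25 ng/μl), Abltide (0.01 μg/μl) and ATP (25 μM), each at its added concentration, reacted with compound (0.5% DMSO) for 30 min at 30 °C. Buffer was 50 mM HEPES pH 7.5, 10 mM MgCl2, 1 mM EGTA, 0.05% BSA, 0.01% Triton X-100, 2 mM DTT. ADP formed was read by ADP-Glo luminescence, and IC50 was fitted from percent inhibition across concentrations.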"}, "LRRK2 (WT)": {"target": "LRRK2 (WT) (Homo sapiens (Human), UniProt Q5S007)", "sequence (Q5S007 whole entry)": "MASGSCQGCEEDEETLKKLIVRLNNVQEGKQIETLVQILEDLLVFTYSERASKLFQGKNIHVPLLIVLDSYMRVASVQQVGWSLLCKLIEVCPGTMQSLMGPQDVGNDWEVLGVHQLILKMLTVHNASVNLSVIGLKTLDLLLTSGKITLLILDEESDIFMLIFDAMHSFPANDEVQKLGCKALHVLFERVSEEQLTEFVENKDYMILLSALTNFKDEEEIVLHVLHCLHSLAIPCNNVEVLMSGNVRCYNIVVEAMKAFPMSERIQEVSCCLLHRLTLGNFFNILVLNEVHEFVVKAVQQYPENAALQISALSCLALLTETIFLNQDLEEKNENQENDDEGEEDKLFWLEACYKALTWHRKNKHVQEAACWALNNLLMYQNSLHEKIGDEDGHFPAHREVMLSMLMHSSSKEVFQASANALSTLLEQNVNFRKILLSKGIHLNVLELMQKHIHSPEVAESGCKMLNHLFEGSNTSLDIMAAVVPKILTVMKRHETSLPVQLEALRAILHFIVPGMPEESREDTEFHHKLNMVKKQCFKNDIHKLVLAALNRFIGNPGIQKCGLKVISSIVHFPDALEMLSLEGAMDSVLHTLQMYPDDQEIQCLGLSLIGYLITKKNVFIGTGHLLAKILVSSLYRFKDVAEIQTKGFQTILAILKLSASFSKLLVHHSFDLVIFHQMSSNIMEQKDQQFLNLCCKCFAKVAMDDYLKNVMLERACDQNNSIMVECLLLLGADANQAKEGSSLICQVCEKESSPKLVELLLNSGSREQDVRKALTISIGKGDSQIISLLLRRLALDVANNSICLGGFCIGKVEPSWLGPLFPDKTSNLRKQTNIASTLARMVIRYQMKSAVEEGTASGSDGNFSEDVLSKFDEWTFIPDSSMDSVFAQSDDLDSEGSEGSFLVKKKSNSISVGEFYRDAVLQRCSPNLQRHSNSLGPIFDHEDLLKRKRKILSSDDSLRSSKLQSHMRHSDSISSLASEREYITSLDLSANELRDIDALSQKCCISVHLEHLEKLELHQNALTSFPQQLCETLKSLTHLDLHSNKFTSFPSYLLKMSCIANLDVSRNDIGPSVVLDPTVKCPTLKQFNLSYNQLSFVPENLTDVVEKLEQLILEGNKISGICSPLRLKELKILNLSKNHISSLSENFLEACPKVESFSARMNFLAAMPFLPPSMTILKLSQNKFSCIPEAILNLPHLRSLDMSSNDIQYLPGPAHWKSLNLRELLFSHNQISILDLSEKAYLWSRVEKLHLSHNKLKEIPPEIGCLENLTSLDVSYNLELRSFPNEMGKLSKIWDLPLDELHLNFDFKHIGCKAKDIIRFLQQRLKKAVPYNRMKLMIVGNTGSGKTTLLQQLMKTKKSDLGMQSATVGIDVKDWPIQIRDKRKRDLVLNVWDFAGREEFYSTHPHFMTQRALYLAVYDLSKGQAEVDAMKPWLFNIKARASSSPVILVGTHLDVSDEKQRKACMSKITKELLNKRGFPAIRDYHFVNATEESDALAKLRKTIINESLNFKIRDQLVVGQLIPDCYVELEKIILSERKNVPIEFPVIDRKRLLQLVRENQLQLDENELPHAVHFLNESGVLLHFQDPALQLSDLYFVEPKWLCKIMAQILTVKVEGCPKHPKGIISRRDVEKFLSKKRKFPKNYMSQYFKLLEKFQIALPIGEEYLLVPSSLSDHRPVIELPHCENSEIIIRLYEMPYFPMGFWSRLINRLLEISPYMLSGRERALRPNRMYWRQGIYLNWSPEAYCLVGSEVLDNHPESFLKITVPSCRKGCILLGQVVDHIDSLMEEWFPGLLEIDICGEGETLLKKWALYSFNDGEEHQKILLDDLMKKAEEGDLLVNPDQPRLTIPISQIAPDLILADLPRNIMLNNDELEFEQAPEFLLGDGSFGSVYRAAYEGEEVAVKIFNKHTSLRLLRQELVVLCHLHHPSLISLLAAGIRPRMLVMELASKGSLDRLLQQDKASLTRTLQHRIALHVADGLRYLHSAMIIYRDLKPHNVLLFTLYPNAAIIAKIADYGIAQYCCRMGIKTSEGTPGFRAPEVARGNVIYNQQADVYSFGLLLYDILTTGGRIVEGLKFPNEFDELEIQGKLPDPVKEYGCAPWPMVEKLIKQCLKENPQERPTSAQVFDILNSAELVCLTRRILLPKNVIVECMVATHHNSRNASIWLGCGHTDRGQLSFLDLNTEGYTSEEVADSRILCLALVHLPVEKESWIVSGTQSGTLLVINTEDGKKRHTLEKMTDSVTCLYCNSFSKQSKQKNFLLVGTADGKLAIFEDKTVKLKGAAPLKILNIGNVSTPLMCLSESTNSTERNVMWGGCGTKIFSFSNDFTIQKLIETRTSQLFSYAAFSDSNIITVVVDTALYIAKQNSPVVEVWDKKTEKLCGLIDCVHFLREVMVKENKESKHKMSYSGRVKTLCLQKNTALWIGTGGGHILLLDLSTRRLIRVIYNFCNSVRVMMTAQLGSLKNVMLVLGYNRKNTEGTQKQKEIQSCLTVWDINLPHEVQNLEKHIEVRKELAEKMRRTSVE", "experiment": "LRRK2 Kinase Assay (Adapta)", "settings": "70 μM ATP, LRRKtide substrate", "outline": "(§1)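 Adapta TR-FRET kinase assay with LRRKtide substrate in 50 mM Tris pH 8.5, 0.01% BRIJ-35, 10 mM MgCl2, 1 mM EGTA, 0.02% NaN3. ATP at Km: 70 μM for WT LRRK2, 100 μM for G2019S. Reaction 1 h at room temperature; after 60 min with detection mix, 665/615 nm emission ratio read.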"}, "LRRK2 G2019S": {"target": "LRRK2 G2019S (Homo sapiens (Human), UniProt Q5S007, G2019S)", "sequence (Q5S007 whole entry G2019S)": "as the sequence (Q5S007 whole entry) above, with G2019S counted along it", "experiment": "LRRK2 G2019S Kinase Assay (Adapta)", "settings": "100 μM ATP, LRRKtide substrate; read-out: LRRK2_G2019S IC50", "outline": "as §1"}}}
{"compound": "O=C(Nc1cn2cc(-c3cccc(F)c3COCCO)ccc2n1)[C@@H]1C[C@@H]1F", "note": "[Example 83, (1S,2S)-2-fluoro-N-(6-(3-fluoro-2-((2-hydroxyethoxy)methyl)phenyl)imidazo[1,2-a]pyridin-2-yl)cyclopropanecarboxamide]", "values": [{"measurement": "IC50", "setting": "[1]", "value": "101 to 1000", "unit": "nM"}, {"measurement": "IC50", "setting": "LRRK2 (WT)", "value": "101 to 1000", "unit": "nM"}, {"measurement": "IC50", "setting": "LRRK2 G2019S", "value": "> 1000", "unit": "nM"}]}
{"compound": "CN(C)Cc1c(F)cccc1-c1ccc2nc(NC(=O)[C@@H]3C[C@@H]3F)cn2c1", "note": "[Example 84, (1S,2S)—N-(6-(2-((dimethylamino)methyl)-3-fluorophenyl)imidazo[1,2-a]pyridin-2-yl)-2-fluorocyclopropanecarboxamide]", "values": [{"measurement": "IC50", "setting": "[1]", "value": "> 1000", "unit": "nM"}, {"measurement": "IC50", "setting": "LRRK2 (WT)", "value": "> 1000", "unit": "nM"}, {"measurement": "IC50", "setting": "LRRK2 G2019S", "value": "> 1000", "unit": "nM"}]}
